In ChEMBL document CHEMBL1123558, “Antitumor activity of bis(diphenylphosphino)alkanes, their gold(I) coordination complexes, and related compounds” (J Med Chem, 1987):
Several values for one entry are separate records, joined by “and”; a condition that tells them apart may be missing. Identical values can stand only once.

Tests used:
Mus musculus [1] = experiment: Maximally tolerated dose was measured after ip administration of compound, 24 hr after tumor implantation.; type: functional
P388 [2] = experiment: Maximum increase in life span was determined against P388 leukemia at 4-5 doses of compound; type: functional, Mus musculus
B16 [3] = experiment: In vitro cytotoxicity against murine B16 melanoma cells; type: functional, cell-based, Mus musculus
Mus musculus [4] = species on record: Mus musculus
ADJ/PC6 = experiment: Tumor growth inhibition activity after subcutaneous transplanted tumor in ADJ-PC6 plasmacytoma cells; type: functional, Mus musculus
[5] = Percent increase in life span after transplant tumor in Madison lung carcinoma cells; type: functional, Mus musculus, M109
[6] = Tumor growth inhibition activity after subcutaneous transplanted tumor in mammary carcinoma 16/C cells; type: functional, Mus musculus
B16 [7] = experiment: Percent increase in life span after transplant tumor in B16 melanoma cells; type: functional, Mus musculus
M5076 = experiment: Percent increase in life span after transplant tumor in M5076 reticulum cells; type: functional, Mus musculus
[8] = system: Lewis lung carcinoma cell line; experiment: Percent increase in life span after transplant tumor in Lewis lung carcinoma cells; type: functional, Mus musculus
P388 [9] = experiment: Percent increase in life span after transplant tumor in p388 leukemia cells; type: functional, Mus musculus
L1210 = experiment: Percent increase in life span after transplant tumor in L1210 leukemia; type: functional, Mus musculus

Row | Compound | MTD (Mus musculus [1]) | ILSmax (P388 [2]) | IC50 (B16 [3]; Mus musculus, B16) [µM] | further results
1 | c1ccc(P(CCCP(c2ccccc2)c2ccccc2)c2ccccc2)cc1 | 78 µM/kg | 75 | 72 | –
2 | CSc1ccc(P(CCP(c2ccc(SC)cc2)c2ccc(SC)cc2)c2ccc(SC)cc2)cc1 | 55 µM/kg | 58 | – | –
3 | CC(CP(c1ccccc1)c1ccccc1)P(c1ccccc1)c1ccccc1 (stereo not given) | 78 µM/kg | 86 | 50 | –
4 | c1ccc(P(CC[As](c2ccccc2)c2ccccc2)c2ccccc2)cc1 | 89 µM/kg | – | 55 | –
5 | FC(F)(F)c1ccc(P(CCP(c2ccc(C(F)(F)F)cc2)c2ccc(C(F)(F)F)cc2)c2ccc(C(F)(F)F)cc2)cc1 | 48 µM/kg | 38 | – | –
6 | c1ccc(P(c2ccccc2)P(c2ccccc2)c2ccccc2)cc1 | 320 µM/kg | – | > 100 | –
7 | C(=C/P(c1ccccc1)c1ccccc1)/P(c1ccccc1)c1ccccc1 | 61 µM/kg | 60 | 25 | –
8 | C(#CP(c1ccccc1)c1ccccc1)P(c1ccccc1)c1ccccc1 | >300 µM/kg | – | 23 | –
9 | c1cc(P(CCP(c2ccncc2)c2ccncc2)c2ccncc2)ccn1 | 80 µM/kg | 35 | – | –
10 | c1ccc(SCCSc2ccccc2)cc1 | 1000 µM/kg | – | > 100 | –
11 | Cc1cccc(P(CCP(c2cccc(C)c2)c2cccc(C)c2)c2cccc(C)c2)c1 | 70 µM/kg | – | > 100 | –
12 | CC(C(C)P(c1ccccc1)c1ccccc1)P(c1ccccc1)c1ccccc1 (stereo not given) | 113 µM/kg | 73 | 50 | –
13 | Cc1ccc(P(CCP(c2ccc(C)cc2)c2ccc(C)cc2)c2ccc(C)cc2)cc1 | 26 µM/kg | – | > 100 | –
14 | 4,4'-Bis-diphenylphosphanyl-biphenyl; compound with GENERIC INORGANIC NEUTRAL COMPONENT | – | – | – | MTD (Mus musculus [4]): 35 µM/kg and 24 µM/kg and 30 µM/kg
15 | c1ccc(P(CCP(CCP(c2ccccc2)c2ccccc2)CCP(c2ccccc2)c2ccccc2)c2ccccc2)cc1 | 95 µM/kg | 35 | 58 | –
16 | COc1ccc(P(CCP(c2ccc(OC)cc2)c2ccc(OC)cc2)c2ccc(OC)cc2)cc1 | 62 µM/kg | – | 66 | –
17 | c1csc(P(CCP(c2cccs2)c2cccs2)c2cccs2)c1 | 38 µM/kg | 60 | > 100 | –
18 | O=[N+]([O-])[O][Ag].O=[N+]([O-])[O][Ag].c1ccc(P(CCP(c2ccccc2)c2ccccc2)c2ccccc2)cc1 | 8 µM/kg | – | – | –
19 | c1ccc(P(CCP(c2ccccc2)c2ccccc2)c2ccccc2)cc1 | 60 µM/kg and 50 µM/kg | 80 and 107 | 50 | TGI (ADJ/PC6): 94%; ILS [5]: 50%; TGI [6]: 88%; ILS (B16 [7]): 38%; ILS (M5076): 74%; ILS [8]: 69%; ILS (P388 [9]): 107%; ILS (L1210): 56%; IC50 (B16 [3]; b16): 60 µM

Row | Compound | MTD (Mus musculus [1]) | ILSmax (P388 [2]) | IC50 (B16 [3]; Mus musculus, B16) [µM] | further results
20 | c1ccc(P(CCP(c2ccccc2)c2ccccc2)CCP(c2ccccc2)c2ccccc2)cc1 | 60 µM/kg | 80 | > 100 | –
21 | c1ccc(CP(CCP(Cc2ccccc2)Cc2ccccc2)Cc2ccccc2)cc1 | 44 µM/kg | – | > 100 | –
22 | c1ccc(P(c2ccccc2)c2ccc(P(c3ccccc3)c3ccccc3)cc2)cc1 | >600 µM/kg | – | > 100 | –
23 | CCP(CCP(CC)c1ccccc1)c1ccccc1 (stereo not given) | >300 µM/kg | – | > 100 | –
24 | c1ccc(P(CCCCCP(c2ccccc2)c2ccccc2)c2ccccc2)cc1 | 18 µM/kg | 50 | > 100 | –
25 | COc1ccccc1P(CCP(c1ccccc1OC)c1ccccc1OC)c1ccccc1OC | 120 µM/kg | – | – | –
26 | CN(C)c1ccc(P(CCP(c2ccc(N(C)C)cc2)c2ccc(N(C)C)cc2)c2ccc(N(C)C)cc2)cc1 | >220 µM/kg | – | – | –
27 | Fc1ccc(P(CCP(c2ccc(F)cc2)c2ccc(F)cc2)c2ccc(F)cc2)cc1 | 17 µM/kg | 60 | > 100 | –
28 | Fc1ccccc1P(CCP(c1ccccc1F)c1ccccc1F)c1ccccc1F | 68 µM/kg | 45 | > 100 | –
29 | CSc1ccccc1P(CCP(c1ccccc1SC)c1ccccc1SC)c1ccccc1SC | 110 µM/kg | 51 | – | –
30 | c1ccc([As](CC[As](c2ccccc2)c2ccccc2)c2ccccc2)cc1 | 82 µM/kg | – | > 100 | –
31 | O=P(CCP(=O)(c1ccccc1)c1ccccc1)(c1ccccc1)c1ccccc1 | 300 µM/kg | – | > 100 | –
32 | CCP(CC)CCP(CC)CC | 310 µM/kg | – | > 100 | –
33 | c1ccc(P(CCCCCCP(c2ccccc2)c2ccccc2)c2ccccc2)cc1 | 280 µM/kg | – | > 100 | –
34 | C(=C\P(c1ccccc1)c1ccccc1)/P(c1ccccc1)c1ccccc1 | 320 µM/kg | – | 40 | –
35 | C1CCC(P(CCP(C2CCCCC2)C2CCCCC2)C2CCCCC2)CC1 | 76 µM/kg | 68 | > 100 | –
36 | c1ccc(P(CCP(c2ccccn2)c2ccccn2)c2ccccn2)nc1 | 60 µM/kg | – | > 100 | –
37 | c1ccc(P(CCCCP(c2ccccc2)c2ccccc2)c2ccccc2)cc1 | 66 µM/kg | 45 | > 100 | –
38 | c1coc(P(CCP(c2ccco2)c2ccco2)c2ccco2)c1 | 180 µM/kg | 60 | > 100 | –
